pIC50: −log10 of the molar value.

The record followed here is US9890147B2 (BAYER PHARMA AKTIENGESELLSCHAFT, priority 2012, dated 2018).

For one test, the target named is T1, BRD4 (BD1) (Homo sapiens, UniProt O60885).
T1 construct: with relatively long constructs also being possible, preferably amino acids 44-168; made in house; host or cells: E. coli
The experiment in a line: Binding assay BRD4/acetylated peptide H4 (TR-FRET protein-protein interaction assay). The essentials: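 Displacement of biotin-Ac-H4 peptide from His6-tagged BRD4(BD1), final usually 10 nM, read as Eu-streptavidin to anti-His-XL665 TR-FRET (665/620 nm). Compounds tested at 11 doses up to 20 μM in duplicate, pH 7.5 HEPES, 22 °C then 4 °C incubation; IC50 by 4-parameter regression.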
(TR-FRET usually uses a lanthanide donor and a delayed reading to cut background.)

The subject of a further test is MOLM-13 cells. The test can be described thus: Cell proliferation assay (alamarBlue), MOLM-13. Type of test: cell-based. The note with it: Homo sapiens, 96 hours incubation, inhibition of cell proliferation. The gist of the method: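 IC50 = concentration giving 50% growth inhibition relative to buffer-treated cells, after subtracting baseline fluorescence taken before dosing. Compound applied at 1E-5 to 1E-8 M for 96 h at 37 °C in RPMI1640 with 10% FCS; alamarBlue signal at 530/590 nm.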
(Alamar Blue is a resazurin reagent that responds to reducing activity.)

`CNC(=O)N1N=C(c2ccc(-c3c(C)noc3C)cc2)c2cc(C)ccc2CC1C` (racemic) [Example 158, (±)-1-[4-(3,5-dimethylisoxazol-4-yl)phenyl]-N,4,8-trimethyl-4,5-dihydro-3H-2,3-benzodiazepine-3-carboxamide]: the pIC50 on BRD4 (BD1) was 7.22; in the test on MOLM-13 cells, 6.37.
Turning to `CNC(=O)N1N=C(c2ccc(-c3cncc(OC)c3)cc2)c2cc(OC)c(OC)cc2CC1C` (racemic) [Example 80, (±)-7,8-dimethoxy-1-[4-(5-methoxypyridin-3-yl)phenyl]-N,4-dimethyl-4,5-dihydro-3H-2,3-benzodiazepine-3-carboxamide], the pIC50 at BRD4 (BD1) was 7.30; in the test with MOLM-13 cells, 6.25.
For `COc1cc2c(cc1OC)C(c1ccc(N3CCN(C)CC3)cc1)=NN(C(C)=O)C(C)C2` (racemic) [Example 245, (±)-1-{7,8-Dimethoxy-4-methyl-1-[4-(4-methylpiperazin-1-yl)phenyl]-4,5-dihydro-3H-2,3-benzodiazepin-3-yl}ethanone], the pIC50 on BRD4 (BD1) was 6.21; in the test with MOLM-13 cells, 6.07.
On to `CNC(=O)N1N=C(c2ccc(N3CC[C@H](O)C3)cc2)c2cc(OC)c(OC)cc2CC1C` (mixture of isomers) [Example 190, (±)-1-{4-[(3S)-3-hydroxypyrrolidin-1-yl]phenyl}-7,8-dimethoxy-N,4-dimethyl-4,5-dihydro-3H-2,3-benzodiazepine-3-carboxamide], for which the values for the pIC50 on BRD4 (BD1) and in the test on MOLM-13 cells were 7.05 and 7.10, respectively.
For the compound `CNC(=O)N1N=C(c2ccc(-n3ccc(-c4ccc(F)cc4)n3)cc2)c2cc(OC)c(OC)cc2C[C@H]1C` [Example 150.2, (4R)-1-{4-[3-(4-fluorophenyl)-1H-pyrazol-1-yl]phenyl}-7,8-dimethoxy-N,4-dimethyl-4,5-dihydro-3H-2,3-benzodiazepine-3-carboxamide], the negative logarithm of the IC50 (pIC50) at BRD4 (BD1) is 4.91; in the test with MOLM-13 cells it was 5.01.
Consider `CNC(=O)N1N=C(c2ccc(N3CCCC3=O)cc2)c2cc(OC)c(OC)cc2CC1C` (racemic) [Example 39, (±)-7,8-dimethoxy-N,4-dimethyl-1-[4-(2-oxopyrrolidin-1-yl)phenyl]-4,5-dihydro-3H-2,3-benzodiazepine-3-carboxamide], for which the figures for the pIC50 at BRD4 (BD1) and with MOLM-13 cells were 7.10 and 6.15, respectively.
For `CCOc1cc2c(cc1OCC)C(c1ccc(-c3c(C)noc3C)cc1)=NN(C(=O)NC)C(C)C2` (racemic) [Example 161, (±)-1-[4-(3,5-Dimethylisoxazol-4-yl)phenyl]-7,8-diethoxy-N,4-dimethyl-4,5-dihydro-3H-2,3-benzodiazepine-3-carboxamide], the pIC50 on BRD4 (BD1) was 6.96; in the test on MOLM-13 cells, 6.55.
For `CNC(=O)N1N=C(c2ccc(N3CCN(CCO)CC3)cc2)c2cc(OC)c(OC)cc2CC1C` (racemic) [Example 178, (±)-1-{4-[4-(2-hydroxyethyl)piperazin-1-yl]phenyl}-7,8-dimethoxy-N,4-dimethyl-4,5-dihydro-3H-2,3-benzodiazepine-3-carboxamide], the pIC50 at BRD4 (BD1) was 7.15; in the test with MOLM-13 cells it was 6.74.
On the same counts, the results for `CNC(=O)N1N=C(c2ccc(-c3ccc(S(C)(=O)=O)cc3)cc2)c2cc(OC)c(OC)cc2CC1C` (racemic) [Example 108, (±)-7,8-dimethoxy-N,4-dimethyl-1-[4′-(methylsulphonyl)biphenyl-4-yl]-4,5-dihydro-3H-2,3-benzodiazepine-3-carboxamide] are 7.22 and 5.81.
For the compound `CNC(=O)N1N=C(c2ccc(N3CCN(CC(F)F)CC3)cc2)c2cc(OC)c(OC)cc2CC1C` (racemic) [Example 193, (±)-1-{4-[4-(2,2-difluoroethyl)piperazin-1-yl]phenyl}-7,8-dimethoxy-N,4-dimethyl-4,5-dihydro-3H-2,3-benzodiazepine-3-carboxamide], the pIC50 was 7.05 on BRD4 (BD1) and 6.96 with MOLM-13 cells.
For `CNC(=O)N1N=C(c2ccc(-c3cncc(C#N)c3)cc2)c2cc(OC)c(OC)cc2CC1C` (racemic) [Example 126, (±)-1-[4-(5-cyanopyridin-3-yl)phenyl]-7,8-dimethoxy-N,4-dimethyl-4,5-dihydro-3H-2,3-benzodiazepine-3-carboxamide] the same measures were 7.05 and 6.13.
As for `CNC(=O)N1N=C(c2ccc(-c3cccnc3OC)cc2)c2cc(OC)c(OC)cc2CC1C` (racemic) [Example 76, (±)-7,8-dimethoxy-1-[4-(2-methoxypyridin-3-yl)phenyl]-N,4-dimethyl-4,5-dihydro-3H-2,3-benzodiazepine-3-carboxamide], the results for the pIC50 at BRD4 (BD1) and in the test with MOLM-13 cells were 7.30 and 6.12, respectively.
`CNC(=O)N1N=C(c2ccc(Cl)cc2)c2cc(OC(F)(F)F)c(Cl)cc2CC1C` (single isomer, unassigned) [Example 15.1, 7-Chloro-1-(4-chlorophenyl)-N,4-dimethyl-8-(trifluoromethoxy)-4,5-dihydro-3H-2,3-benzodiazepine-3-carboxamide]: the pIC50 is 6.35 at BRD4 (BD1) and 5.52 with MOLM-13 cells.
Turning to `CNC(=O)N1N=C(c2ccc(N3CCC(O)CC3)cc2)c2cc(Cl)c(OC(F)(F)F)cc2CC1C` (racemic) [Example 212, (±)-8-chloro-1-[4-(4-hydroxypiperidin-1-yl)phenyl]-N,4-dimethyl-7-(trifluoromethoxy)-4,5-dihydro-3H-2,3-benzodiazepine-3-carboxamide], the figures for the pIC50 on BRD4 (BD1) and in the test with MOLM-13 cells were 6.51 and 6.09, respectively.
As for `CNC(=O)N1N=C(c2ccc(-c3ccc(Cl)cc3Cl)cc2)c2cc(OC)c(OC)cc2CC1C` (racemic) [Example 61, (±)-1-(2′,4′-dichlorobiphenyl-4-yl)-7,8-dimethoxy-N,4-dimethyl-4,5-dihydro-3H-2,3-benzodiazepine-3-carboxamide], the results for the negative logarithm of the IC50 (pIC50) at BRD4 (BD1) and with MOLM-13 cells were 6.24 and 5.68, respectively.
For `CNC(=O)N1N=C(c2ccc(-c3cn(C)nn3)cc2)c2cc(OC)c(OC)cc2C[C@@H]1C` [Example 45.1, (4S)-7,8-dimethoxy-N,4-dimethyl-1-[4-(1-methyl-1H-1,2,3-triazol-4-yl)phenyl]-4,5-dihydro-3H-2,3-benzodiazepine-3-carboxamide], the pIC50 on BRD4 (BD1) is 7.15; in the test on MOLM-13 cells, 6.66.
As to `CNC(=O)N1N=C(c2ccc(-c3cccc(OC)c3)cc2)c2cc(OC)c(OC)cc2CC1C` (racemic) [Example 87, (±)-7,8-dimethoxy-1-(3′-methoxybiphenyl-4-yl)-N,4-dimethyl-4,5-dihydro-3H-2,3-benzodiazepine-3-carboxamide], the values for the pIC50 at BRD4 (BD1) and with MOLM-13 cells were 6.96 and 6.25, respectively.
For `CNC(=O)N1N=C(c2ccc(-c3sc(C)nc3C)cc2)c2cc(OC)c(OC)cc2C[C@@H]1C` (single isomer, unassigned) [Example 46.1], the negative logarithm of the IC50 (pIC50) was 6.02 on BRD4 (BD1) and 5.29 in the test on MOLM-13 cells.
On the same counts, the results for `CNC(=O)N1N=C(c2ccc(N3CCS(=O)(=O)CC3)cc2)c2cc(OC)c(OC)cc2C[C@@H]1C` [Example 136, (4S)-1-[4-(1,1-dioxidothiomorpholin-4-yl)phenyl]-7,8-dimethoxy-N,4-dimethyl-4,5-dihydro-3H-2,3-benzodiazepine-3-carboxamide] are 7.70 and 6.70.
Consider `CNC(=O)N1N=C(c2ccc(-c3ccc(F)cc3)cc2)c2cc(OC)c(OC)cc2CC1C` (racemic) [Example 62, (±)-1-(4′-fluorobiphenyl-4-yl)-7,8-dimethoxy-N,4-dimethyl-4,5-dihydro-3H-2,3-benzodiazepine-3-carboxamide], for which the results for the negative logarithm of the IC50 (pIC50) on BRD4 (BD1) and in the test with MOLM-13 cells were 7.22 and 6.19, respectively.
With `CNC(=O)N1N=C(c2cccc(-c3cnn(C)c3)c2)c2cc(OC)c(OC)cc2CC1C` (racemic) [Example 54, (±)-7,8-dimethoxy-N,4-dimethyl-1-[3-(1-methyl-1H-pyrazol-4-yl)phenyl]-4,5-dihydro-3H-2,3-benzodiazepine-3-carboxamide], the pIC50 on BRD4 (BD1) was 7.30; in the test on MOLM-13 cells, 6.36.
Regarding `CNC(=O)N1N=C(c2ccc(-c3cc(C)cc(F)c3)cc2)c2cc(OC)c(OC)cc2CC1C` (racemic) [Example 120, (±)-1-(3′-fluoro-5′-methylbiphenyl-4-yl)-7,8-dimethoxy-N,4-dimethyl-4,5-dihydro-3H-2,3-benzodiazepine-3-carboxamide], the pIC50 on BRD4 (BD1) is 6.72; in the test with MOLM-13 cells it was 6.10.
`CNC(=O)N1N=C(c2ccc(-c3ccnn3C)cc2)c2cc(OC)c(OC)cc2CC1C` (racemic) [Example 101, (±)-7,8-dimethoxy-N,4-dimethyl-1-[4-(1-methyl-1H-pyrazol-5-yl)phenyl]-4,5-dihydro-3H-2,3-benzodiazepine-3-carboxamide]: the pIC50 at BRD4 (BD1) was 7.22; in the test with MOLM-13 cells, 6.19.
For `CNC(=O)N1N=C(c2ccc(-c3ccc(C(=O)N4CCCC4)cc3)cc2)c2cc(OC)c(OC)cc2CC1C` (racemic) [Example 78, (±)-7,8-dimethoxy-N,4-dimethyl-1-[4′-(pyrrolidin-1-ylcarbonyl)biphenyl-4-yl]-4,5-dihydro-3H-2,3-benzodiazepine-3-carboxamide], the pIC50 on BRD4 (BD1) was 7.40; with MOLM-13 cells, 6.43.
For `CNC(=O)N1N=C(c2ccc(-c3c(C)noc3C)cc2)c2cc(C(C)(C)C)ccc2CC1C` (racemic) [Example 155, (±)-8-tert-Butyl-1-[4-(3,5-dimethylisoxazol-4-yl)phenyl]-N,4-dimethyl-4,5-dihydro-3H-2,3-benzodiazepine-3-carboxamide] the same measures were 7.40 and 6.42.
On the same counts, the results for `CNC(=O)N1N=C(c2ccc(-c3ccc(C)nc3)cc2)c2cc(OC)c(OC)cc2CC1C` (racemic) [Example 117, (±)-7,8-dimethoxy-N,4-dimethyl-1-[4-(6-methylpyridin-3-yl)phenyl]-4,5-dihydro-3H-2,3-benzodiazepine-3-carboxamide] are 7.30 and 6.42.

As usually defined, the pIC50 is the negative decadic logarithm of the IC50, by convention in mol/L. A higher pIC50 goes with a low IC50.
